Key:
[1] = molecular target: monoamine transporter on dopaminergic neurons (Rattus norvegicus, UniProt P23977); settings: 0.5 mM inhibitor in uptake buffer
Description: The functional status of the dopaminergic neurons may be assayed in these cultures by measuring dopamine uptake through specific “scavenger” transporters in the dopaminergic neurons and by counting the number of neurons positive for the dopamine synthetic enzyme tyrosine hydroxylase using immunohistochemistry.

[2] = test system: serotonergic neurons in rat embryo mesencephalic cultures; assay: 3H-serotonin uptake in mesencephalic cultures; assay type: cell-based; settings: 10 μM inhibitor
Procedure: FIGS. 24A-B depicts the specificity of GDNF to dopaminergic neurons. Cultures were prepared as described in Example 1B. GDNF was added on the day of plating, and uptake was measured after 6 days in vitro. A depicts dopamine uptake and B depicts serotonin uptake.
In the presence of 10 μM citalpram (obtained from Dr. C. Mytilineou, Mount Sinai School of Medicine), a known potent inhibitor of serotonin uptake in serotonin neurons, the ^3H-serotonin uptake was reduced to 15%.

[3] = test system: GABA neurons in mesencephalic cultures; assay: 14C-GABA uptake in mesencephalic cultures; assay type: cell-based, rat; settings: 1 mM inhibitor
Procedure: FIGS. 21A-C depicts the specificity of GDNF to dopaminergic neurons. Cultures were established as described in Example 1B. GDNF was added on the day of plating. A. ^3H-DA uptake was measured after seven days in vitro. B. ^14C-GABA uptake was measured after eight days in vitro. Cells were incubated and treated as for ^3H-DA uptake, except the uptake buffer consists of Kreb-Ringer's phosphate buffer, pH 7.4, containing 5.6 mM glucose, 1.3 mM EDTA, 10 μM amino-oxyacetic acid (to prevent GABA breakdown), 2 mM β-alanine (to inhibit glia uptake of GABA) and 0.1 μM ^14C-GABA (150 mCi/mmole, New England Nuclear, Boston, Mass.). In the presence of 1 mM diaminobutyric acid (DABA), a potent inhibitor of ^14C-GABA uptake into GABA neurons, the ^14C-uptake was reduced to 10%. Control values in the presence of DABA were subtracted from experimental values.
H^3-dopamine (^3H-DA) and ^14C-GABA uptake were measured in sister cultures of mesencephalic cells which had been grown with various concentrations of GDNF for 15 and 16 days, respectively. As described above, GDNF enhanced the ^3H-DA uptake capacity of mesencephalic dopamine neurons ˜150% over control without GDNF (FIG. 21A). […] This is also illustrated by the increase in the ^3H-DA/^14C-GABA uptake ratio calculated (FIG. 21C).

[4] = test system: GABA neurons in mesencephalic cultures; settings: Casper et al. 1991; cited from earlier work
[5] = test system: dopaminergic neurons in rat embryo (E16) mesencephalic cell cultures; settings: Casper et al. 1991; cited from earlier work
[6] = test system: serotonergic neurons in rat embryo mesencephalic cultures; settings: Casper et al. 1991; cited from earlier work

monoamine transporter on dopaminergic neurons, sequence (P23977 whole entry): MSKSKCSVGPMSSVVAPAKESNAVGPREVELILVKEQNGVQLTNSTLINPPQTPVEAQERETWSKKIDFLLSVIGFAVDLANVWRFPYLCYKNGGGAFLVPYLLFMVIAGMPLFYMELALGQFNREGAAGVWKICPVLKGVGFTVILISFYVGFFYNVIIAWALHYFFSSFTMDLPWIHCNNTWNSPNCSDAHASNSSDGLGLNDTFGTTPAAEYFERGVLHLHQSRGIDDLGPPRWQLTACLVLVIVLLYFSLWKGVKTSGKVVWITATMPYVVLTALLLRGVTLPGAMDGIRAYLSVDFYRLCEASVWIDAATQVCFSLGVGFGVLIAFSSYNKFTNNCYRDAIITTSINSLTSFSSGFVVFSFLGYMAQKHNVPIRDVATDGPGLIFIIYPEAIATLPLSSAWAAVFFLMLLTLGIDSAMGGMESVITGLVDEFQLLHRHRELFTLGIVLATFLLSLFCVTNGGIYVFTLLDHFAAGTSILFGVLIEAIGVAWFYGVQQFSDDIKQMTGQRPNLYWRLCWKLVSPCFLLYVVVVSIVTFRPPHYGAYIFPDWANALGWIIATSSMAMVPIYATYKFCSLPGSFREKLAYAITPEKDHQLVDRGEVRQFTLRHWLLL

## Fc1ccc(C(OCCN2CCN(CCCc3ccccc3)CC2)c2ccc(F)cc2)cc1 [GBR12909]
[1]
  blank 3H-DA uptake as % of uptake in untreated control cultures: less than 5%

## CN(C)CCCC1(c2ccc(F)cc2)OCc2cc(C#N)ccc21 (stereo not drawn) [citalpram, reference compound]
[2]
  3H-serotonin uptake remaining in presence of inhibitor: 15%

## NCCC(N)C(=O)O (stereo not drawn) [diaminobutyric acid (DABA), diaminobutyric acid, reference compound]
[3]
  14C-uptake remaining in presence of inhibitor: 10%

## epidermal growth factor (NSDSECPLSHDGYCLHDGVCMYIEALDKYACNCVVGYIGERCQYRDLKWWELR; Epidermal growth factor; UniProt P01133 971-1023, looked up) [EGF, non-specific factor increasing dopamine, serotonin and GABA uptake]
[4]
  effect on GABA uptake: increase
[5]
  effect on dopamine uptake: increase dopamine uptake
[6]
  effect on serotonin uptake: increase serotonin uptake
